Experimental data as given in PubChem BioAssay AID1996.
In brackets after ≈: the same amount, converted by molar mass.

conditions: buffer; pH 7.4; 200.0 µM

Question: With `CC(=O)OCC[N+](C)(C)C.[O-][Cl+3]([O-])([O-])[O-]` as the molecule, how does the solubility kinetic read?
Answer: > 36.8 µg/mL

Question: Which solubility kinetic does the source give for `O=C(COc1cccnc1[N+](=O)[O-])Nc1c(Cl)cccc1Cl` here?
Answer: 23.2 µg/mL (≈ 67.8 µM)

Question: For `COC(=O)c1c(-c2cccc(C)c2)csc1NC(=O)C1CCCO1` (stereo not drawn), which solubility kinetic is on record?
Answer: 11.1 µg/mL (≈ 32.1 µM)

Question: Which solubility kinetic does the source give for `Cc1ccc(C)c(NCC(=O)c2ccc(Cl)cc2)c1` here?
Answer: 2.2 µg/mL (≈ 8.04 µM)

Question: With `CC(C)c1ccc(N(CC(=O)N2CCN(Cc3ccccc3)CC2)S(C)(=O)=O)cc1` as the molecule, how does the solubility kinetic read?
Answer: 40.5 µg/mL (≈ 94.3 µM)

Question: With `CCOc1ccccc1N1CC(C(=O)N(CC)C2CCS(=O)(=O)C2)CC1=O` (stereo not drawn) as the molecule, how does the solubility kinetic read?
Answer: > 59.2 µg/mL

Question: Which solubility kinetic does the source give for `COc1cnc(-c2ccccn2)nc1Oc1cccc(C(F)(F)F)c1` here?
Answer: 37.4 µg/mL (≈ 108 µM)

Question: Which solubility kinetic does the source give for `CCS(=O)(=O)Nc1ccc2[nH]c(=O)[nH]c2c1` here?
Answer: > 36.2 µg/mL

Question: With `Cc1cc(C)cc(NC(=S)N2CCCC2)c1` as the molecule, how does the solubility kinetic read?
Answer: > 35.2 µg/mL

Question: Which solubility kinetic does the source give for `COc1ccc2nc(C)cc(NCc3ccc(F)cc3)c2c1` here?
Answer: > 44.5 µg/mL

Question: Which solubility kinetic does the source give for `O=[N+]([O-])c1cccc(-c2nc(-c3ccccn3)no2)c1` here?
Answer: 6.4 µg/mL (≈ 23.9 µM)

Question: With `Nc1ccc(C(=O)OCc2nc3ccccc3s2)cc1` as the molecule, how does the solubility kinetic read?
Answer: 27 µg/mL (≈ 95 µM)

Question: With `O=C1N=C(N2CCCCC2)S/C1=C\c1ccccc1F` as the molecule, how does the solubility kinetic read?
Answer: 4.7 µg/mL (≈ 16.2 µM)

Question: For `O=[N+]([O-])c1ccc2c(c1)C(c1ccccc1)=NCCN2`, which solubility kinetic is on record?
Answer: 16.8 µg/mL (≈ 62.9 µM)

Question: Which solubility kinetic does the source give for `CC1CCCC(NC(=O)CCC(=O)NCc2ccccc2)C1C` (stereo not drawn) here?
Answer: 44.7 µg/mL (≈ 141 µM)

Question: For `Cc1nc2cccc(C(=O)Oc3ccc([N+](=O)[O-])cc3)c2o1`, which solubility kinetic is on record?
Answer: 10.1 µg/mL (≈ 33.9 µM)

Question: Which solubility kinetic does the source give for `CCOC(=O)c1cnc(-c2ccccc2)nc1Oc1ccc(OC)cc1` here?
Answer: < 0.4 µg/mL

Question: For `COc1ccc(S(=O)(=O)NCc2ccccn2)cc1Br`, which solubility kinetic is on record?
Answer: > 53.6 µg/mL

Question: Which solubility kinetic does the source give for `COc1ccccc1C(=O)Nn1c(C)nc2ccccc2c1=O` here?
Answer: > 46.4 µg/mL

Question: Which solubility kinetic does the source give for `O=C(CN1C(=O)COc2ccc(Cl)cc21)NC1CC1` here?
Answer: > 42.1 µg/mL

Question: For `CCOc1cccc(NC(=O)c2cnccc2C(F)(F)F)c1`, which solubility kinetic is on record?
Answer: 43.2 µg/mL (≈ 139 µM)

Question: For `Cc1ccc(C(=O)NCN2CCN(c3ccccc3)CC2)cc1`, which solubility kinetic is on record?
Answer: > 46.4 µg/mL

Question: For `COc1cccc(OC)c1C(=O)Nc1sc2c(c1C(N)=O)CCCC2`, which solubility kinetic is on record?
Answer: 25 µg/mL (≈ 69.4 µM)

Question: For `COc1ccc(Nc2ncnc3sc(-c4ccccc4)cc23)c(OC)c1`, which solubility kinetic is on record?
Answer: 0.6 µg/mL (≈ 1.65 µM)

Question: With `C=CC#CC1(O)CC(C)N(C)CC1C` (stereo not drawn) as the molecule, how does the solubility kinetic read?
Answer: > 29 µg/mL

Question: With `CN1C(=O)/C(=C\c2ccccc2OCc2ccccc2)SC1=S` as the molecule, how does the solubility kinetic read?
Answer: < 0.7 µg/mL

Question: Which solubility kinetic does the source give for `O=C(NCCCCCCNC(=O)c1ccncc1)c1ccncc1` here?
Answer: > 49 µg/mL

Question: With `Cc1c(C)n(CC(O)CN(CCO)CCO)c2ccccc12.Cl` (stereo not drawn) as the molecule, how does the solubility kinetic read?
Answer: > 51.4 µg/mL

Question: Which solubility kinetic does the source give for `N#Cc1ccccc1COC(=O)c1ccc(Br)o1` here?
Answer: 28.4 µg/mL (≈ 92.8 µM)

Question: With `CC(=O)c1c(C)n(Cc2ccccc2)c2ccc(O)cc12` as the molecule, how does the solubility kinetic read?
Answer: 0.7 µg/mL (≈ 2.51 µM)

Question: Which solubility kinetic does the source give for `O=C(NCc1ccco1)c1ccc2c(c1)N(Cc1ccccc1)CCS2` here?
Answer: 12.9 µg/mL (≈ 35.4 µM)

Question: For `CO/N=C/C(NC(=O)c1ccc(C(F)(F)F)cc1)C(=O)OC` (stereo not drawn), which solubility kinetic is on record?
Answer: > 47.7 µg/mL

Question: Which solubility kinetic does the source give for `COc1ccc(/C=C2/SC(=S)NC2=O)cc1OCc1ccccc1` here?
Answer: < 0.8 µg/mL

Question: With `CC(Cl)C(=O)N1c2ccccc2CCc2ccccc21` (stereo not drawn) as the molecule, how does the solubility kinetic read?
Answer: 41.8 µg/mL (≈ 146 µM)

Question: Which solubility kinetic does the source give for `CC1Cc2ccccc2N1C(=O)COc1ccc2c(c1)OCO2` (stereo not drawn) here?
Answer: 43.1 µg/mL (≈ 138 µM)

Question: Which solubility kinetic does the source give for `CC(=O)c1nc2ccccc2n1Cc1ccccc1` here?
Answer: 14.5 µg/mL (≈ 57.9 µM)

Question: For `CC(=O)c1ccc(S(=O)(=O)N2CCC3(CC2)OCCO3)cc1`, which solubility kinetic is on record?
Answer: > 48.8 µg/mL

Question: Which solubility kinetic does the source give for `CN(C)C(=O)C12CCC(C)(C(=O)C1Br)C2(C)C` (stereo not drawn) here?
Answer: > 45.3 µg/mL

Question: For `Cc1ccc(OCCCC(=O)NCc2ccco2)c(C)c1`, which solubility kinetic is on record?
Answer: > 43.1 µg/mL

Question: For `CNC(=O)C(=O)NCCCN1CCOCC1`, which solubility kinetic is on record?
Answer: > 34.4 µg/mL

Question: With `Cc1ccc(CNc2ncc(-c3ccccc3)n2C)o1.O=C(O)C(=O)O` as the molecule, how does the solubility kinetic read?
Answer: > 53.6 µg/mL

Question: Which solubility kinetic does the source give for `Cc1ccc(CN(C)c2nc(-c3cccnc3)nc3ccccc23)o1` here?
Answer: 15.5 µg/mL (≈ 46.9 µM)

Question: Which solubility kinetic does the source give for `Cc1cc(Br)ccc1NC(=O)CN(C)C(=O)C1=COCCO1` here?
Answer: > 55.4 µg/mL
